These molecules were tested against T1, CCK-A (Cavia porcellus, UniProt Q63931) (assay: CCK-receptor bioassay, isolated guinea-pig gall-bladder strips, CCK-8 as agonist). Settings: negative logarithm (base 10) of equilibrium dissociation constant (pKB), CCK-8 agonist, test compound incubated 60 minutes.
T1 construct: Isolated, strip preparations were prepared from gall-bladders removed from male Dunkin-Hartley guinea-pigs; from tissue; host or cells: isolated gall-bladder strips of male Dunkin-Hartley guinea-pigs
T1 sequence (Q63931 1-430): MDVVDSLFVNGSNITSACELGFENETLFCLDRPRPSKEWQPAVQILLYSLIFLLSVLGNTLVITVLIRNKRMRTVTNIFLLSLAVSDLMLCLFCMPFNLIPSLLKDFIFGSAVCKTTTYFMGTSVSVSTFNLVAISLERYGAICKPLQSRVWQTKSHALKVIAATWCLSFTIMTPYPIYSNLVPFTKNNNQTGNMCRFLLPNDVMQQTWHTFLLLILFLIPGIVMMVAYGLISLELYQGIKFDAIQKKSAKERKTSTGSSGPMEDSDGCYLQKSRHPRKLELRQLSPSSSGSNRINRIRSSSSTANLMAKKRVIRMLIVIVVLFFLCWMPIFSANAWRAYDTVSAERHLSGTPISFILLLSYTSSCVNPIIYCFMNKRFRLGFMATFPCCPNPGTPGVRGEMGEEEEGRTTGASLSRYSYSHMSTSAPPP
Type: cell-based, male Dunkin-Hartley guinea-pigs
Protocol: The compounds were assayed using the CCK-receptor bioassay as follows:
Isolated, strip preparations were prepared from gall-bladders removed from male Dunkin-Hartley guinea-pigs (250-500 g body weight) according to the method of La Morte, W. W., et al., J.P.E.T., 217, (3), 638-644 (1981).
The complete gall-bladder is removed and opened along the longitudinal axis. Strips measuring 3 mm in the longitudinal axis and 1 mm in the transverse axis are cut and then tied with cotton to stainless steel wires. The preparation is connected to a GRASS FTO3 isometric transducer under an initial loading tension of 1 g and is immersed in 20 mls of Krebs solution maintained at 37° C. and gassed with 95% O2 /5% CO2. The composition (mM) of the Krebs solution is as follows: Na^+ 143, K^+ 5.9, Ca^2+ 0.5, Mg^2+ 1.2, Cl^- 128, H2 PO4^- 2.2, HCO3^- 24.9, SO4^2- 1.2, dextrose 10. After 30 mins the preparation is washed. Drug addition begins after an initial 90 min stabilisation period. Responses are measured as changes in tension from that immediately prior to any drug addition. Single cumulative agonist concentration-effect curves, using CCK-8 as agonist, are obtained on each preparation in the absence and presence of test compound which has been incubated for 60 minutes. The antagonist activity of the test compound is estimated and expressed as the negative logarithm (base 10) of the equilibrium dissociation constants (pKB) using the modifications of standard competitive analysis described by Black et al., Br. J. Pharmacol.,86,571-579, (1985) and Shankley et al., Br. J. Pharmacol.,94,264-274 (1988).
`O=C(O)C[C@H](NS(=O)(=O)Cc1ccc2ccccc2c1)C(=O)NCCc1ccccc1` [Example 10, Naphthylmethanesulphonyl-L-aspartyl (2-phenethyl)amide] was tested, and the pKB was 5.40 ± 0.18.
Molecule `COc1ccc2cc(S(=O)(=O)N[C@@H](CC(=O)O)C(=O)NCCc3ccccc3)ccc2c1Cl` [Example 13, 5-Chloro-6-methoxynaphthalenesulphonyl-L-aspartyl (2-phenethyl)amide] has a pKB of 6.49 ± 0.38.
Molecule `O=C(O)C[C@H](NS(=O)(=O)/C=C/c1ccccc1)C(=O)NCCc1ccccc1` [Example 22, 2-phenethenylsulphonyl-L-aspartyl (2-phenethyl)amide] has a pKB of 6.27 ± 0.22.

Same assay, conditions: negative logarithm (base 10) of equilibrium dissociation constant (pKB), CCK-8 agonist, test compound incubated 60 minutes, read-out: pK8 versus CCK (gallbladder) (converted)
`O=C(O)C[C@H](NS(=O)(=O)c1ccc2ccccc2c1)C(=O)NCCc1ccccc1` [Example 1, 2-Naphthalenesulphonyl-L-aspartyl (2-phenethyl)amide] gave a Kb of 0.324 µM.
Molecule `O=C(O)C[C@H](NS(=O)(=O)CCc1ccccc1)C(=O)NCCc1ccccc1` [Example 7, 2-phenylethanesulphonyl-L-aspartyl (2-phenethyl)amide] has a Kb of 3.47 µM.
`O=C(O)C[C@H](NS(=O)(=O)c1ccc(Cl)c(Cl)c1)C(=O)NCCc1ccccc1` [Example 9, 3,4-Dichlorobenzenesulphonyl-L-aspartyl (2-phenethyl)amide] was tested, and the Kb was 1.7 µM.
In the case of `COc1ccc2cc(S(=O)(=O)N[C@@H](CC(=O)O)C(=O)NCCc3ccccc3)ccc2c1` [Example 12, 6-Methoxynaphthalenesulphonyl-L-aspartyl (2-phenethyl)amide], the Kb is reported as 0.257 µM.
For `COc1cc2cc(S(=O)(=O)N[C@@H](CC(=O)O)C(=O)NCCc3ccccc3)ccc2c(Cl)c1OC` [Example 14, 5-Chloro-6,7-dimethoxynaphthalenesulphonyl-L-aspartyl (2-phenethyl)amide], the Kb was 0.617 µM.
Molecule `O=C(O)C[C@@H](NS(=O)(=O)c1ccc2ccccc2c1)C(=O)NCCc1ccccc1` [Example 15, 2-Naphthalenesulphonyl-D-aspartyl (2-phenethyl)amide] has a Kb of 1.2 µM.
In the case of `O=C(O)CC[C@H](NS(=O)(=O)c1ccc2ccccc2c1)C(=O)NCCc1ccccc1` [Example 16, 2-Naphthalenesulphonyl-L-glutamyl (2-phenethyl)amide], the Kb is reported as 0.724 µM.
Work on `O=C(O)C[C@H](NS(=O)(=O)c1ccc2ccccc2c1)C(=O)NCCc1ccc(F)cc1` [Example 18, 2-Naphthalenesulphonyl-L-aspartyl (2(4-fluorophenethyl)amide)] yielded a Kb of 0.269 µM.
Molecule `COc1ccc(CCNC(=O)[C@H](CC(=O)O)NS(=O)(=O)c2ccc3ccccc3c2)cc1` [Example 19, Naphthalenesulphonyl-L-aspartyl (2-(4-methoxyphenethyl)amide)] has a Kb of 1.02 µM.
Work on `NS(=O)(=O)c1ccc(CCNC(=O)[C@H](CC(=O)O)NS(=O)(=O)c2ccc3ccccc3c2)cc1` [Example 20, 2-Naphthalenesulphonyl-L-aspartyl (2-(4-sulphonamidophenethyl)amide)] yielded a Kb of 11.2 µM.
Molecule `O=C(O)C[C@H](NS(=O)(=O)c1ccc2ccccc2c1)C(=O)N1CCc2ccccc2C1` [Example 21, 2-Naphthalenesulphonyl-L-aspartyl (1,2,3,4-tetrahydroisoquinolin)amide] has a Kb of 7.24 µM.
`O=C(O)C[C@H](NS(=O)(=O)c1ccc2ccccc2c1)C(=O)NCCCc1ccccc1` [Example 23, 2 -Naphthalenesulphonyl-L-aspartyl (3-phenylpropyl)amide] showed a Kb of 0.105 µM.

Source: US5399748A, “Derivatives of aspartic acid and glutamic acid having anticholecystokinin activity” (James Black Foundation Limited, priority 1990, dated 1995)
